From ChEMBL document CHEMBL1154115, “NO-glibenclamide derivatives: prototypes of a new class of nitric oxide-releasing anti-diabetic drugs” (Bioorg Med Chem, 2009) come the findings set out here.

One assay deals with Liver. Description: Induction of NO release in Wistar rat liver homogenate at 200 uM by amperometric detection method. Format: functional, tissue-based.
Assay [1] is described as follows: Induction of 20 mM glucose-stimulated insulin secretion in human pancreatic islet cells assessed as insulin stimulation index at 100 uM by immunoradiometric assay. Format: functional.
In the next assay the test system is Platelet. As to the kind of experiment: Inhibition of ADP-induced platelet aggregation in human platelet-rich plasma at 100 uM treated 2 mins before ADP challenge by turbidimetric method. Format: functional. Further details: scale not given: the % may be the effect or the level left.
Assay [2] can be described thus: Induction of 20 mM glucose-stimulated insulin secretion in human pancreatic islet cells assessed as insulin stimulation index at 10 uM by immunoradiometric assay. The format is functional.
In a further assay the test system is Rattus norvegicus. Description: Hypoglycemic activity in streptozotocin-induced diabetic Wistar rat assessed as reduction in blood glucose AUC level at 10 mg/kg, ip measured for 2 hrs (Rvb= 45318 mg/dl/2 h). Also noted: dose 10 mg/kg. Format: functional, organism-based.
For another assay, the system named is Aorta. Description: Vasorelaxant activity in endothelium-denuded Wistar rat thoracic aortic ring assessed as inhibition of KCl-induced contraction. The format is functional, tissue-based.

pIC50: −log10 of the molar value. Calls of active or inactive are those of the source. No cut-off for these calls is given here.

With `COc1ccc(Cl)cc1C(=O)NCCc1ccc(S(=O)(=O)NC(=O)N[C@H]2CC[C@H](O)CC2)cc1` [4-TRANS-HYDROXY-GLYBENCLAMIDE], in the assay with Liver, the outcome was inactive. Further, the Activity in assay [1] was found to be 8.2; with Platelet, 76%; in assay [2], 6. In the assay on Rattus norvegicus, the AUC is 34500 mg·min/dL.

Consider `COc1ccc(Cl)cc1C(=O)NCCc1ccc(S(=O)(=O)NC(=O)NC2CCCCC2)cc1` [GLYBURIDE], for which the outcome in the assay with Liver was inactive. For the same molecule, the Activity in assay [1] came to 5.2; in the assay on Platelet it was 67%; in assay [2], 4.3. In addition, in the assay on Rattus norvegicus, the AUC came to 33100 mg·min/dL.

What is called Emax is the size of the effect at its maximum, as opposed to the concentration needed. Broadly, the pIC50 is the negative decadic logarithm of the IC50, by convention in mol/L. Turning to `O=[N+]([O-])OCC(CO[N+](=O)[O-])O[N+](=O)[O-]` [NITROGLYCERIN], the figures for the Activity with Liver and in the assay with Platelet were 600 nM and 28%, respectively. Moreover, the Emax with Aorta is 98%. Further, the pIC50 with Aorta is 7.23.
